Converted amounts (≈) assume the structure as drawn. Like-named read-outs stand apart in the source and are kept apart here.
Key:
Assay in all cases: In vitro antibacterial MIC/MBC test
Format in all cases: cell-based
[1] = system: S. aureus 59-81; details: Staphylococcus aureus, 5981
Method: (§1) Win 52,522 and Win 35,439 were solubilized in 0.1 ml of 0.5 N NaOH/mg of compound and diluted in sterile distilled water to 160 mcg/ml. Vancomycin and methicillin were solubilized in sterile distilled water to 1250 mcg/ml of base compound. The stock solutions were sterilized by filtration through membrane filters with a 0.45 μm pore size.
(§2) The bacterial cultures listed in Table I (hereinbelow) were grown overnight at 37° C. in MHB for all cultures except the Streptococcus strains. These were grown in BHI+10% NHS. The overnight broth cultures were adjusted to an optical density of 0.10 (650 nm, B L Spectronic 20) in sterile distilled water and subsequently diluted to 6.7×10^6 cells/ml in MHB or BHI+1% NHS.
(§3) Serial two-fold dilutions of the compound solutions were prepared in MHB (or in BHI+1% NHS for tests with Streptococci) and dispensed into 96-well microtiter trays in a volume of 0.1 ml/well using a Sandy Springs (Bellco Glass Co.) dispenser. The trays were then inoculated with 0.0015 ml of a suspension containing 6.7×10^6 cells/ml of the appropriate inoculum using a MIC-2000 inoculator (Dynatech Corp.) resulting in a final inoculum of approximately 1×10^4 cells/well or 1×10^5 cells/ml. The trays were incubated at 37° C. for 18-20 hours and the minimal inhibitory concentration (MIC), defined as the lowest concentration of compound to inhibit visible bacterial growth, was recorded.
(§4) After the MIC values were recorded, the contents in the microtiter trays were thoroughly mixed on a Bellco Mini-orbital Shaker (Bellco Glass Co.) for 3 min. at a setting of 8. A portion (0.0015 ml) from each well was then transferred via an MIC-2000 inoculator to plates containing MHA or BHI agar+10% NHS. The plates were incubated at 37° C. for 18-20 hrs. The minimal bactericidal concentration (MBC), defined as the lowest concentration of compound that prevented the formation of a recognizable colony on the agar surface, was recorded.

[2] = system: S. aureus 13-8-A; details: Staphylococcus aureus, 138A
Method: as §1, §2, §3, §4

[3] = system: S. aureus 21-81A; details: Staphylococcus aureus, 2181A
Method: as §1, §2, §3, §4

[4] = system: S. epidermidis (17917); details: Staphylococcus epidermidis, ATCC17917
Method: as §1, §2, §3, §4

[5] = system: S. pyogenes 7948-15; details: Streptococcus pyogenes, 794815
Method: as §1, §2, §3, §4

[6] = system: S. pneumoniae Type III; details: Streptococcus pneumoniae
Method: as §1, §2, §3, §4

[7] = system: S. faecalis (8043); details: Enterococcus faecalis, ATCC8043
Method: as §1, §2, §3, §4

[8] = system: S. aureus VA16951; details: Staphylococcus aureus
Method: as §1, §2, §3, §4

[9] = system: S. aureus 41-81; details: Staphylococcus aureus, 4181
Method: as §1, §2, §3, §4

[10] = system: S. faecalis (11700); details: Enterococcus faecalis, ATCC11700
Method: as §1, §2, §3, §4

[11] = system: S. aureus Glorgio; details: Staphylococcus aureus
Method: as §1, §2, §3, §4

[12] = system: S. aureus Smith; details: Staphylococcus aureus
Method: as §1, §2, §3, §4

[13] = system: S. epidermidis (12228); details: Staphylococcus epidermidis, ATCC12228
Method: as §1, §2, §3, §4

[14] = system: S. aureus (25923); details: Staphylococcus aureus, ATCC25923
Method: as §1, §2, §3, §4

[15] = system: S. epidermidis 1-5-H; details: Staphylococcus epidermidis, 15H
Method: as §1, §2, §3, §4

[16] = system: S. aureus 10-81; details: Staphylococcus aureus, 1081
Method: as §1, §2, §3, §4

[17] = system: S. aureus 34-81; details: Staphylococcus aureus, 3481
Method: as §1, §2, §3, §4

[18] = system: S. enterococcus 0-2-13; details: 0213
Method: as §1, §2, §3, §4

[19] = system: S. epidermidis 1-3-H; details: Staphylococcus epidermidis, 13H
Method: as §1, §2, §3, §4

[20] = system: S. aureus S-234; details: Staphylococcus aureus, S234
Method: as §1, §2, §3, §4

[21] = system: S. aureus 24-81; details: Staphylococcus aureus, 2481
Method: as §1, §2, §3, §4

CN[C@H](CC(C)C)C(=O)N[C@H]1C(=O)N[C@@H](CC(N)=O)C(=O)N[C@H]2C(=O)N[C@H]3C(=O)N[C@H](C(=O)N[C@H](C(=O)O)c4cc(O)cc(O)c4-c4cc3ccc4O)[C@H](O)c3ccc(c(Cl)c3)Oc3cc2cc(c3O[C@@H]2O[C@H](CO)[C@@H](O)[C@H](O)[C@H]2O[C@H]2C[C@](C)(N)[C@H](O)[C@H](C)O2)Oc2ccc(cc2Cl)[C@H]1O [Vancomycin]
MBC [1]: 1 µg/mL (≈ 0.69 µM) | MIC [1]: 1 µg/mL (≈ 0.69 µM) | MBC [2]: 0.5 µg/mL (≈ 0.345 µM) | MIC [2]: 0.5 µg/mL (≈ 0.345 µM) | MBC [3]: 1 µg/mL (≈ 0.69 µM) | MIC [3]: 0.5 µg/mL (≈ 0.345 µM) | MBC [4]: 1 µg/mL (≈ 0.69 µM) | MIC [4]: 1 µg/mL (≈ 0.69 µM) | MBC [5]: 16 µg/mL (≈ 11 µM) | MIC [5]: 16 µg/mL (≈ 11 µM) | MBC [6]: 16 µg/mL (≈ 11 µM) | MIC [6]: ≤ 0.06 µg/mL | MBC [7]: > 125 µg/mL | MIC [7]: 1 µg/mL (≈ 0.69 µM) | MBC ([8]; VA16951): 1 µg/mL (≈ 0.69 µM) | MIC ([8]; VA16951): 1 µg/mL (≈ 0.69 µM) | MBC [9]: 1 µg/mL (≈ 0.69 µM) | MIC [9]: 1 µg/mL (≈ 0.69 µM) | MBC [10]: > 125 µg/mL | MIC [10]: 1 µg/mL (≈ 0.69 µM) | MBC [11]: 1 µg/mL (≈ 0.69 µM) | MIC [11]: 1 µg/mL (≈ 0.69 µM) | MBC [12]: 1 µg/mL (≈ 0.69 µM) | MIC [12]: 1 µg/mL (≈ 0.69 µM) | MBC [13]: 1 µg/mL (≈ 0.69 µM) | MIC [13]: 1 µg/mL (≈ 0.69 µM) | MBC [14]: 1 µg/mL (≈ 0.69 µM) | MIC [14]: 1 µg/mL (≈ 0.69 µM) | MBC [15]: 2 µg/mL (≈ 1.38 µM) | MIC [15]: 2 µg/mL (≈ 1.38 µM) | MBC [16]: 1 µg/mL (≈ 0.69 µM) | MIC [16]: 1 µg/mL (≈ 0.69 µM) | MBC [17]: 0.5 µg/mL (≈ 0.345 µM) | MIC [17]: 0.5 µg/mL (≈ 0.345 µM) | MBC ([18]; Enterococcus): 16 µg/mL (≈ 11 µM) | MIC ([18]; Enterococcus): 0.25 µg/mL (≈ 0.173 µM) | MBC [19]: 1 µg/mL (≈ 0.69 µM) | MIC [19]: 1 µg/mL (≈ 0.69 µM) | MBC [20]: 1 µg/mL (≈ 0.69 µM) | MIC [20]: 1 µg/mL (≈ 0.69 µM) | MBC [21]: 0.5 µg/mL (≈ 0.345 µM) | MIC [21]: 0.5 µg/mL (≈ 0.345 µM)

CCn1cc(C(=O)O)c(=O)c2ccc(-c3cc(C)nc(C)c3)cc21 [Win 35,439, 1-ethyl-1,4-dihydro-7-(2,6-dimethyl-4-pyridinyl)-4-oxo-3-quinolinecarboxylic acid]
MBC ([1]; S. aureus 59-81, read-out: MBC): 0.25 µg/mL (≈ 0.776 µM) | MIC ([1]; S. aureus 59-81, read-out: MIC): 0.125 µg/mL (≈ 0.388 µM) | MBC ([2]; S. aureus 13-8-A, read-out: MBC): 0.125 µg/mL (≈ 0.388 µM) | MIC ([2]; S. aureus 13-8-A, read-out: MIC): 0.06 µg/mL (≈ 0.186 µM) | MBC ([3]; S. aureus 21-81A, read-out: MBC): 0.125 µg/mL (≈ 0.388 µM) | MIC ([3]; S. aureus 21-81A, read-out: MIC): 0.06 µg/mL (≈ 0.186 µM) | MBC ([4]; S. epidermidis ATCC No. 17917, read-out: MBC): 0.5 µg/mL (≈ 1.55 µM) | MIC ([4]; S. epidermidis ATCC No. 17917, read-out: MIC): 0.5 µg/mL (≈ 1.55 µM) | MBC ([5]; S. pyogenes 7948-15, read-out: MBC): > 16 µg/mL | MIC ([5]; S. pyogenes 7948-15, read-out: MIC): 4 µg/mL (≈ 12.4 µM) | MBC ([6]; S. pneumoniae Type III, read-out: MBC): 4 µg/mL (≈ 12.4 µM) | MIC ([6]; S. pneumoniae Type III, read-out: MIC): 4 µg/mL (≈ 12.4 µM) | MBC ([7]; S. faecalis ATCC No. 8043, read-out: MBC): 2 µg/mL (≈ 6.2 µM) | MIC ([7]; S. faecalis ATCC No. 8043, read-out: MIC): 1 µg/mL (≈ 3.1 µM) | MBC ([8]; S. aureus VA16951, read-out: MBC): 0.06 µg/mL (≈ 0.186 µM) | MIC ([8]; S. aureus VA16951, read-out: MIC): 0.06 µg/mL (≈ 0.186 µM) | MBC ([9]; S. aureus 41-81, read-out: MBC): 0.25 µg/mL (≈ 0.776 µM) | MIC ([9]; S. aureus 41-81, read-out: MIC): 0.06 µg/mL (≈ 0.186 µM) | MBC ([10]; S. faecalis ATCC No. 11700, read-out: MBC): 1 µg/mL (≈ 3.1 µM) | MIC ([10]; S. faecalis ATCC No. 11700, read-out: MIC): 1 µg/mL (≈ 3.1 µM) | MBC ([11]; S. aureus Glorgio, read-out: MBC): 0.125 µg/mL (≈ 0.388 µM) | MIC ([11]; S. aureus Glorgio, read-out: MIC): 0.03 µg/mL (≈ 0.0931 µM) | MBC ([12]; S. aureus Smith, read-out: MBC): 0.125 µg/mL (≈ 0.388 µM) | MIC ([12]; S. aureus Smith, read-out: MIC): 0.125 µg/mL (≈ 0.388 µM) | MBC ([13]; S. epidermidis ATCC No. 12228, read-out: MBC): 0.25 µg/mL (≈ 0.776 µM) | MIC ([13]; S. epidermidis ATCC No. 12228, read-out: MIC): 0.25 µg/mL (≈ 0.776 µM) | MBC ([14]; S. aureus ATCC No. 25923, read-out: MBC): 0.125 µg/mL (≈ 0.388 µM) | MIC ([14]; S. aureus ATCC No. 25923, read-out: MIC): 0.125 µg/mL (≈ 0.388 µM) | MBC ([15]; S. epidermidis 1-5-H, read-out: MBC): 0.25 µg/mL (≈ 0.776 µM) | MIC ([15]; S. epidermidis 1-5-H, read-out: MIC): 0.25 µg/mL (≈ 0.776 µM) | MBC ([16]; S. aureus 10-81, read-out: MBC): 0.125 µg/mL (≈ 0.388 µM) | MIC ([16]; S. aureus 10-81, read-out: MIC): 0.125 µg/mL (≈ 0.388 µM) | MBC ([17]; S. aureus 34-81, read-out: MBC): 0.06 µg/mL (≈ 0.186 µM) | MIC ([17]; S. aureus 34-81, read-out: MIC): 0.06 µg/mL (≈ 0.186 µM) | MBC ([18]; S. enterococcus 0-2-13, read-out: MBC): 2 µg/mL (≈ 6.2 µM) | MIC ([18]; S. enterococcus 0-2-13, read-out: MIC): 2 µg/mL (≈ 6.2 µM) | MBC ([19]; S. epidermidis 1-3-H, read-out: MBC): 0.25 µg/mL (≈ 0.776 µM) | MIC ([19]; S. epidermidis 1-3-H, read-out: MIC): 0.25 µg/mL (≈ 0.776 µM) | MBC ([20]; S. aureus S-234, read-out: MBC): 0.125 µg/mL (≈ 0.388 µM) | MIC ([20]; S. aureus S-234, read-out: MIC): 0.06 µg/mL (≈ 0.186 µM) | MBC ([21]; S. aureus 24-81, read-out: MBC): 0.125 µg/mL (≈ 0.388 µM) | MIC ([21]; S. aureus 24-81, read-out: MIC): 0.06 µg/mL (≈ 0.186 µM)

Reference: patent publication US4698350A, “1-ethyl-6-fluoro-1,4-dihydro- 7-(2,6-dimethyl-4-pyridinyl)-4-oxo-3-quinolinecarboxylic acid and antibacterial use thereof” (Sterling Drug Inc., priority 1984, dated 1987)
